Settings: pH 2.0

With CN(C)S(=O)(=O)c1cccc(Cn2c(=O)c(=O)n(Cc3ccccc3)c3ccc(Cl)cc32)c1 as the compound, how does the logD read?
Its logD is 3.37.

Which logD does the source give for CC(C)N(Cc1nnc(-c2ccc(Cl)cc2)o1)C(=O)[C@@H]1COc2ccccc2O1 here?
Its logD is 4.09.

For C[C@H](NC1=NS(=O)(=O)c2ccccc21)C(=O)OCC(=O)/C=C1/N(C)c2ccccc2C1(C)C, which logD is on record?
Its logD is 4.21.

Which logD does the source give for O=C(/C=C/c1cccs1)Nc1ccc(I)cc1 here?
The logD was 4.67.

For Cc1cc(C)n2nc(S[C@@H](C)C(=O)NCC(=O)Nc3ccc(F)c(F)c3F)nc2n1, which logD is on record?
Its logD is 2.18.

Same assay, conditions: pH 5.0

For COc1cc(C#N)ccc1OC(=O)/C=C/c1cccc(F)c1, which logD is on record?
Its logD is 4.46.

With CC1(C)OC[C@H](COc2c(F)c(N3CCOCC3)nc(F)c2Cl)O1 as the compound, how does the logD read?
Its logD is 4.07.

Which logD does the source give for CCCN(CCC)S(=O)(=O)c1ccc(C(=O)N2CC[C@@H]3c4ccccc4C(=O)N3C2)cc1 here?
Its logD is 4.55.

Which logD does the source give for COc1ccc([C@@H]2CCCC[C@H]2O)cc1 here?
The logD was 2.85.

For COc1cc(/C=N\n2cnc3sc4c(c3c2=O)CCCC4)ccc1OCc1ccccc1, which logD is on record?
The logD was 5.68.

With Cc1c(N[C@@H](NC(=O)c2cccc([N+](=O)[O-])c2)C(Cl)(Cl)Cl)c(=O)n(-c2ccccc2)n1C as the compound, how does the logD read?
Its logD is 3.99.

Which logD does the source give for O=C(Nc1ccc(C(F)(F)F)cc1)[C@H]1CCc2ccccc2O1 here?
The logD was 4.5.

For Cc1ccc(NC(=O)[C@@H]2CCCN2C(=O)OC(C)(C)C)cc1C, which logD is on record?
Its logD is 3.9.

With COc1ccc([C@@H]2[C@H]3C(=O)N(c4sc5c(c4C#N)CCCC5)C(=O)[C@@H]3ON2c2ccccc2C)cc1 as the compound, how does the logD read?
The logD was 5.83.

For C#CCN1C(=O)[C@H]2CC[C@@](C)(C1=O)C2(C)C, which logD is on record?
Its logD is 2.28.

With CC1(C)CC(=O)C2=C(C1)N(c1c(F)cccc1F)C(N)=C(C#N)[C@@H]2c1cccc(Cl)c1 as the compound, how does the logD read?
The logD was 5.04.

For O=C(N[C@H](Sc1ncccn1)C(=O)c1ccccc1)c1ccccc1, which logD is on record?
The logD was 3.62.

With Cc1ccc([N+](=O)[O-])cc1N1C(=O)[C@@H]2[C@@H](C1=O)[C@@H](C(=O)C(C)(C)C)N1N=CC=C[C@H]21 as the compound, how does the logD read?
The logD was 3.85.

For C[C@H](NC(=O)C1CC1)c1ccccc1, which logD is on record?
Its logD is 1.85.

For CCOC(=O)c1[nH]c(C)c(C(=O)OCC(=O)N(C)[C@@H]2CCS(=O)(=O)C2)c1C, which logD is on record?
Its logD is 3.35.

For Cc1ccc(C(=O)COc2cccc(N3C(=O)[C@@H]4[C@H]5CC[C@H](C5)[C@@H]4C3=O)c2)cc1C, which logD is on record?
Its logD is 4.71.

With Cc1ccc(CNC(=O)C2CCN(S(=O)(=O)c3ccc4c(c3)OCCCO4)CC2)cc1 as the compound, how does the logD read?
Its logD is 4.01.

For CCN(C(=O)COC(=O)/C(=C/c1ccc(Cl)cc1)c1ccc(F)cc1)[C@@H]1CCS(=O)(=O)C1, which logD is on record?
The logD was 4.95.

With COc1ccc([C@@H]2[C@@H]3CCCC=C3C(C#N)=C(N)C2(C#N)C#N)cc1COCC(F)(F)F as the compound, how does the logD read?
Its logD is 5.5.

With Cc1cc(Cl)ccc1O[C@@H](C)C(=O)NC1CCCCCC1 as the compound, how does the logD read?
Its logD is 5.45.

Which logD does the source give for CCOC(=O)C1=C(C)OC(N)=C(C#N)[C@H]1c1cccc(I)c1 here?
The logD was 4.48.

With COc1ccc2c(c1)O[C@](O)(C(F)(F)F)CC2=O as the compound, how does the logD read?
Its logD is 2.79.

With COc1ccccc1/C=N/n1c(C)cc(C)c(C#N)c1=O as the compound, how does the logD read?
Its logD is 3.08.

For C[C@@H]1CCC[C@H](C)N1C(=O)COC(=O)c1ccc2c(c1)S(=O)(=O)c1ccccc1C2=O, which logD is on record?
The logD was 4.39.

For CC1(C)[C@H](C(=O)N2CCOCC2)CC[C@]1(C)C(=O)N1CCOCC1, which logD is on record?
The logD was 2.46.

Which logD does the source give for CCCCOc1ccc(/C=C/C(=O)NC(C)C)cc1 here?
The logD was 4.45.

Which logD does the source give for Cc1cccc(NC(=O)NC(C)C)c1C here?
Its logD is 2.7.

Which logD does the source give for COc1ccc([C@@H]2C3=C(C[C@H](c4ccco4)CC3=O)Nc3ccccc3N2C(=O)C(F)(F)F)cc1 here?
Its logD is 4.62.

For CCOC(=O)C1=C(C)NC(=O)C[C@@H]1c1cc(OC)c(OC)cc1Br, which logD is on record?
Its logD is 3.93.

Which logD does the source give for O=C(/C=C/Nc1cccc(C(F)(F)F)c1)c1ccc(Br)cc1 here?
The logD was 5.65.

With O=C(NCc1ccccc1)/C(=C/c1ccc(Cl)cc1)NC(=O)c1ccccc1 as the compound, how does the logD read?
Its logD is 4.41.

With Cc1cccc(NC(=O)Cc2ccc(Br)cc2)c1C as the compound, how does the logD read?
The logD was 4.05.

For COc1ccc(C(=O)OCC(=O)c2cc(C)n(C[C@@H]3CCCO3)c2C)c(OC)c1, which logD is on record?
The logD was 4.18.

For Cc1cc(C)c([C@H]2[C@@H]3CCCC=C3C(C#N)=C(N)C2(C#N)C#N)c(C)c1, which logD is on record?
The logD was 5.48.

Which logD does the source give for COc1cc([C@H]2NC(=O)NC(C)=C2C(=O)OC(C)C)ccc1OC(F)F here?
The logD was 3.75.

Which logD does the source give for Cc1cc(Cl)ccc1NC(=S)NCCc1c[nH]c2ccccc12 here?
The logD was 4.34.

Which logD does the source give for CCCC[C@H](CC)Cn1c(SCC(=O)Nc2ccc(OC)cc2)nc2c1c(=O)n(C)c(=O)n2C here?
The logD was 5.51.

For CC[C@H](C)NC(=O)NC(C(F)(F)F)C(F)(F)F, which logD is on record?
Its logD is 2.84.

Which logD does the source give for COc1ccc([C@H]2CC(=O)C3=C(C2)Nc2ccc4ccccc4c2[C@@H]3c2ccc3c(c2)OCO3)cc1 here?
The logD was 5.77.

For COCCCNC(=S)N1[C@H](C)CCC[C@H]1C, which logD is on record?
Its logD is 2.8.

With C[C@H](C(=O)NC1CCCC1)N(c1ccc(Cl)cc1)S(C)(=O)=O as the compound, how does the logD read?
The logD was 3.48.

With O=C(/C=C/c1ccccc1)Nc1cccc(NC(=O)c2cccc(Cl)c2)c1 as the compound, how does the logD read?
The logD was 5.53.

For Cc1c(Nc2nc3ccccc3nc2Nc2cccc(Cl)c2)c(=O)n(-c2ccccc2)n1C, which logD is on record?
Its logD is 5.96.

With CC(=O)c1cccc(N2C(=O)[C@@H]3[C@H](C2=O)[C@@H]2C=C[C@H]3C2=C(c2ccc(C)cc2)c2ccc(C)cc2)c1 as the compound, how does the logD read?
Its logD is 6.25.

From the SangsterLogP compilation
